Results on 1 compound are retold here after EP2966079B1, “PYRIDOPYRIMIDINE OR PYRIMIDOPYRIMIDINE COMPOUND, PREPARATION METHOD, PHARMACEUTICAL COMPOSITION AND USE THEREOF” (Shanghai Institute of Materia Medica, Chinese Academy of …, priority 2013, dated 2014).

Structures are written as SMILES.

Experiment [1] concerns human prostate cancer LNCap. The experiment can be described thus: Cell proliferation assay (MTS method), LNCap. It is filed as cell-based. The following applies: 72 h, LNCap cells, cultured with compound for 3 days. As for the experimental part:
(§1) Cell proliferation assay was based on two types of cell lines, i.e., human brain glioma U87MG and human prostate cancer LNCap, both of which were from ATCC. U87MG and LNCap contain PTEN gene deletion, and belongs to mTOR signal-dependent tumor cells. Cell culture media and related reagents were from GIBCO. U87MG cells were cultured in a MEM complete medium (containing 10% fetal bovine serum, 100 U/mL penicillin and 100 µg/mL streptomycin). […] Cells/compound was cultured for 3 days, and MTS method was used to test cell proliferation. MTS and PMS were purchased from Sigma company, a stock solution of MTS/PMS (20:1) was added into the test cells with 20 µL/well. After a suitable time of incubation, the proliferation assay results was recorded on a 96 well plate microplate reader. Relative cell viability% = (A490valueofadministeredgroup−lightvalueoftheblankgroup)/(lightvalueofDMSOgroup−lightvalueofblankgroup) × 100%. [formula]
(§2) The experimental data were processed with Microsoft Office Excel and Graphpad PRISM 5 to calculate IC50.
A general note: Formazan colour is commonly taken as a measure of viable cells.

The test system of experiment [2] is human brain glioma U87MG. The experiment can be described thus: Cell proliferation assay (MTS method), U87MG. It is filed as cell-based. The following applies: U-87 MG, 72 h, U87MG cells, cultured with compound for 3 days. The procedure:
as §1, §2

Experiment [3] addresses mTOR (Homo sapiens, UniProt P42345). The experiment can be described thus: mTOR Kinase test (LANCE Ultra, ULight-4EBP1 substrate). Conditions: 1.7 nM mTOR, 50 nM ULight-4EBP1, 100 µM ATP, 1.5 hours reaction. It counts as biochemical. (Time-resolved FRET reads energy transfer from a long-lived donor to a nearby acceptor.)

Sequence of mTOR (P42345 1362-2549): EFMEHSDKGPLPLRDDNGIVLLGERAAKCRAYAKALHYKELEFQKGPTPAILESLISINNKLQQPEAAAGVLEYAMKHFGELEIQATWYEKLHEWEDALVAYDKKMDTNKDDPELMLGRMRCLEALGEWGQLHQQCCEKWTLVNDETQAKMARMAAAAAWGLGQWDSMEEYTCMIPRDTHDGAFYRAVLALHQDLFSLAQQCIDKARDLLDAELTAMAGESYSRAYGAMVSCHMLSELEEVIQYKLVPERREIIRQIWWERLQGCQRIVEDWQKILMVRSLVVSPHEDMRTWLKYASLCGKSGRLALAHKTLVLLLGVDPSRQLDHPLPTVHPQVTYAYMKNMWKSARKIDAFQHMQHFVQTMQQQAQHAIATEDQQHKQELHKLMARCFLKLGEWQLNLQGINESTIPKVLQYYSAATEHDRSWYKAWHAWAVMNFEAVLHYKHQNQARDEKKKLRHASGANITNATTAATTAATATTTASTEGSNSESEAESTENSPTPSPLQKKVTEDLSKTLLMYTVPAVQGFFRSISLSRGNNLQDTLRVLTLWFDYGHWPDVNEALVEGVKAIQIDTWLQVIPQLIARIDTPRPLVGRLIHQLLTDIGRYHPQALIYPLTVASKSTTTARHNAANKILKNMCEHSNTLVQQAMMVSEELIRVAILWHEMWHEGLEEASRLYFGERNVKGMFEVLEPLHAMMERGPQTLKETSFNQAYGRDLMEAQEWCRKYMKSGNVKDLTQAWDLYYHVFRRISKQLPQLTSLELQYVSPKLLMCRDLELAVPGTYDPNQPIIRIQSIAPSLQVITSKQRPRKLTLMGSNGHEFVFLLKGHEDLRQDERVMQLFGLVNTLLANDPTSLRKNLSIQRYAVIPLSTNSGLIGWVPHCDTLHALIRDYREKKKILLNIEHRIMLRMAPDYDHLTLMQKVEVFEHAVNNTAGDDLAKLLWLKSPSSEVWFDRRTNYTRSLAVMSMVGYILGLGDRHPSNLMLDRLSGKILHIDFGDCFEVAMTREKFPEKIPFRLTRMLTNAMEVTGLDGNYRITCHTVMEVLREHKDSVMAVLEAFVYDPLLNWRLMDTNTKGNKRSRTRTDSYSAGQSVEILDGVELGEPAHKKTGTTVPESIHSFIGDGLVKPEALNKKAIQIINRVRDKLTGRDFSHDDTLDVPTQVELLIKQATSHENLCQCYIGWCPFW

The term IC50 denotes the concentration that inhibits the measured activity by half. Consider `COc1ccc(-c2cc3nc(N4C[C@@H](C)O[C@@H](C)C4)nc(N4C[C@@H](C)O[C@@H](C)C4)c3cn2)cc1CO` [Compound 17, (5-(2,4-di((2S,6R)-2,6-dimethyl)pyrido[4,3-d]pyrimidin-7-yl)-2-methoxyphenyl)methanol], for which the IC50 was 21.4 µM in experiment [1], over 60 µM in experiment [2] and over 20 µM in experiment [3].
